Measurements from patent US20230263918A1, “ANTIVIRAL METHODS AND COMPOSITIONS” (priority 2020, published 2023).

Tests used:
E. coli = experiment: Light-activated killing of bacteria (E. coli); type: cell-based; details: for light-activated killing of bacteria: E. coli; for anti-bacterial activity using cool white light: LuzChem "cool white" light
Excerpt: No killing of bacteria in the dark has yet been observed.
Compound E was applied to a wet wipe surface and also to the surface of a filter for filtration of air or water.

mammal models = details: in vivo

| SMILES | light-activated killing of bacteria (E. coli) | anti-bacterial activity using cool white light (E. coli) | relative reactivity in bacterial killing (E. coli; light-activated) | light-activated killing on surfaces (E. coli; applied to wet wipe surface and filter surface for air or water) | killing of bacteria in the dark (E. coli; dark) | activity when surface immersed in E. Coli suspension (E. coli; wet wipe / filter surface immersed in suspension of E. Coli) | toxicity against mammal models (mammal models) |
| --- | --- | --- | --- | --- | --- | --- | --- |
| Cn1cc[n+](CCCOc2ccc(C#Cc3ccc(C#Cc4ccc(OCCC[n+]5ccn(C)c5)cc4)cc3)cc2)c1 [Compound D] | excellent | excellent anti-bacterial activity | more reactive than Compound E |  |  |  |  |
| Cn1cc[n+](CCCCc2ccc(C#Cc3ccc(C#Cc4ccc(OCCC[n+]5ccn(C)c5)cc4)s3)cc2)c1 [Compound E] | excellent | excellent anti-bacterial activity |  | strong light-activated killing | No killing | activity was retained | no toxicity |
